Reference: US10016515B2, “DMA, a bis-benzimidazole, confers radioprotection to the intestine via Akt/NFκB dual pathway activation” (Jawaharlal Nehru University, priority 2016, dated 2018)

Columns and labels:
[1] = test system: Akt/NFκB pathway in HEK293, MRC5 and A549 cell lines; assay: Immunoblot analysis in cell lines; format: cell-based, human
Description: HEK293, MRC5 and A549 cells were treated as indicated earlier. The cell pellet was resuspended in RIPA buffer and allowed to swell on ice for 30 min. Balb/c intestine tissue and tumor tissues were homogenized in RIPA buffer. Protein concentration was determined using Bradford's Assay (Bangalore Genei). Western blot was performed using standard protocols with primary antibodies against Akt, pAkt (Ser-473), […], mTOR, p70, Bad, PTEN, IKKα/β, p IKKα/β, p53, Bcl2, GAPDH, and NFκB (p65) (Cell Signalling) and horseradish peroxidase-conjugated mouse or rabbit secondary antibody (Abcam). Signals were detected using enhanced chemiluminescence (ECL system, Pierce) on X-ray film.
Cells after treatment were collected by trypsinization and washed twice with ice-cold PBS. Cell pellet was resuspended in five volumes of cytoplasmic extraction buffer (CEB) [10 mM HEPES pH 7.9, 10 mM KCl, 0.1 mM EDTA, 0.3% NP-40 and 1× protease inhibitor cocktail] to the size of cell pellet for 5 min. Protein solution was centrifuged at 3000 rpm for 5 min at 4° C. and supernatant was harvested as cytoplasmic extract.
The cell pellet obtained after extraction of cytoplasmic proteins was resuspended again in CEB without NP-40. It was centrifuged at 3000 rpm for 5 min at 4° C. and supernatant was discarded. Equal volume of nuclear extraction buffer (NEB) [20 mM HEPES pH7.9, 0.4M NaCl, 1 mM EDTA, 25% Glycerol, and 1× protease inhibitor cocktail] was added to nuclear pellet and incubated on ice for 10 min. Supernatant was harvested as nuclear protein extract.

MRC5 cells = assay: Growth kinetics with DMA prior to 6 Gy radiation; format: cell-based, human; details: for % growth compared to control: MRC5, 50 μM DMA prior to 6 Gy; for % radioprotection: MRC5, 6 Gy
Description: FIG. 2. Radioprotection by DMA Against Radiation in MRC5 and A549 Cell Lines. A) Proliferation of viable MRC5. B) Graphical representation of % survival of MRC5 cell line at 24 and 48 h C) A549 treated with 50 μM DMA in presence and absence of 6 Gy radiation and D) Graphical representation of % survival of A549 cell line at 24 and 48 h. Cell numbers were determined by haemocytometer at 0, 6, 12, 24 and 48 h. Values are mean (±SD) of three independent experiments. *p<0.05 compared to the control group.
2 h subsequent to DMA treatment, cells was exposed to γ-irradiation (1.3 Gy/min dose rate) using Co-60 source (Institute of Nuclear Medicine and Allied Sciences, Delhi, India). Following irradiation, cells were incubated for 4 h in a 5% CO2 humidified incubator and processed for further sample preparation.

Balb/c mice = format: in vivo; details: 400 mg/kg oral before 8Gy TBI
[2] = DMA+Radiation, all three cell lines

SMILES: COc1ccc(-c2nc3cc(-c4nc5cc(N6CCN(C)CC6)ccc5[nH]4)ccc3[nH]2)cc1OC [DMA, 5-(4-methylpiperazin-1-yl)-2-[2′-(3,4-dimethoxyphenyl)-5′-benzimidazolyl]benzimidazole]
- NFκB p65 level ([1]; DMA+Radiation vs control and irradiated): increased level
- Level of phosphorylated Akt (Ser-473) ([1]; DMA+Radiation, HEK293, MRC5 and A549): increased
- IκBα protein level [1, 2]: decrease
- Phosphorylation of IKKα and IKKβ [1, 2]: higher
- NFκB p65 in cytoplasm and nucleus ([1]; HEK293 cytoplasmic and nuclear extract, DMA prior to radiation): higher expression
- PTEN, mTOR and p70 levels ([1]; all three cell lines): could not address any significant changes
- Phosphorylated GSK3β ([1]; prior DMA treatment to radiation, all three cell lines): increase
- % growth compared to control (MRC5 cells; 24 h): 58.62%
- % growth compared to control (MRC5 cells; 48 h): 74%
- % radioprotection (MRC5 cells; 24 h): 20.69%
- % radioprotection (MRC5 cells; 48 h): 29%
- 30-days survival rate (Balb/c mice): 90%
